Target: T1, USP48 C39 (Q86UV5) (Homo sapiens, UniProt Q86UV5)
T1 sequence (Q86UV5 1-1035): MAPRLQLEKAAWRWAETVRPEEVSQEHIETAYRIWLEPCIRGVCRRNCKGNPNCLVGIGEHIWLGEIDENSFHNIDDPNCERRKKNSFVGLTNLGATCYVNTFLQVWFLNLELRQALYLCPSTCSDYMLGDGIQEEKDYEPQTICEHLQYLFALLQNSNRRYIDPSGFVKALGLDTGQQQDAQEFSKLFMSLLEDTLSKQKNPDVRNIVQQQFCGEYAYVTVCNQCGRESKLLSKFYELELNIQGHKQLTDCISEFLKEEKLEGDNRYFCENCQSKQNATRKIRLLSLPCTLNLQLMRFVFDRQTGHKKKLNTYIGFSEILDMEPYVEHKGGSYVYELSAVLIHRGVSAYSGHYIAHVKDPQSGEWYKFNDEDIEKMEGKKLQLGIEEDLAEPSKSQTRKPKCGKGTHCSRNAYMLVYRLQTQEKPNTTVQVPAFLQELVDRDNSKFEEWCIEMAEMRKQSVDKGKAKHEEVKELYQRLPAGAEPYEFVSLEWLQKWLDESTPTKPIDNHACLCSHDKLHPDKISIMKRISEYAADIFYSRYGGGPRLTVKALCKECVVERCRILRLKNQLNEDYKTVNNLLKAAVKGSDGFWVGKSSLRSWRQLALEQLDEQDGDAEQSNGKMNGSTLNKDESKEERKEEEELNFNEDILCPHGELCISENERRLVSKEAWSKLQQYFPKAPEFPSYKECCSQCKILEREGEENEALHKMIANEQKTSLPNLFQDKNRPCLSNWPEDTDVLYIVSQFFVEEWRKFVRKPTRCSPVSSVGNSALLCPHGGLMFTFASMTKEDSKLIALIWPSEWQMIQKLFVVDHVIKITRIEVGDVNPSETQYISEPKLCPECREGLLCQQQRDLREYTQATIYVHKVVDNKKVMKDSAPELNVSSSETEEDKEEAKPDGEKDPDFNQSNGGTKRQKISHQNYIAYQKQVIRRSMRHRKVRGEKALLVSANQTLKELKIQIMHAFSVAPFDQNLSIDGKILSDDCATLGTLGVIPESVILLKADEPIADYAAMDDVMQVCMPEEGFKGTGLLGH
Test: Competitive isoTOP-ABPP in situ
Assay type: cell-based
Details: fragment 2 at 200 μM, MDA-MB-231 cells

For `COc1ccc2c(c1)CCCN2C(=O)CCl` [compound 2], the “isoTOP-ABPP reactivity profile (ratio) 2_200 μM_in-situ_231” value was 20.0.

Reference: US10670605B2, “Cysteine reactive probes and uses thereof” (The Scripps Research Institute, priority 2015, dated 2020)
